Assay results published in PubChem BioAssay (NCI).
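Interpolation was linear, between the two tested concentrations surrounding the appropriate level; five concentrations were tested over 48 hours in 96-well plates. TGI denotes the concentration required for complete inhibition of growth.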

Legend:
Experiment in all cases: DTP human tumour cell line panel, 48 h
SR leukemia = system: SR leukemia
SNB-75 CNS = system: SNB-75 CNS
IGROV1 ovarian = system: IGROV1 ovarian
ACHN renal = system: ACHN renal
SF-539 CNS = system: SF-539 CNS
MDA-N = system: MDA-N
NCI/ADR-RES ovarian = system: NCI/ADR-RES ovarian
COLO 205 colon = system: COLO 205 colon
HCC-2998 colon = system: HCC-2998 colon
SF-268 CNS = system: SF-268 CNS
NCI-H460 lung = system: NCI-H460 lung
EKVX NSCLC = system: EKVX NSCLC
DU-145 prostate = system: DU-145 prostate
TK-10 renal = system: TK-10 renal
SK-OV-3 ovarian = system: SK-OV-3 ovarian
SNB-19 CNS = system: SNB-19 CNS
OVCAR-4 ovarian = system: OVCAR-4 ovarian
CAKI-1 renal = system: CAKI-1 renal
RXF 393 renal = system: RXF 393 renal
MDA-MB-231 breast = system: MDA-MB-231 breast
MALME-3M melanoma = system: MALME-3M melanoma
RPMI-8226 leukemia = system: RPMI-8226 leukemia
HS 578T breast = system: HS 578T breast
MDA-MB-435 = system: MDA-MB-435
HL-60(TB) leukemia = system: HL-60(TB) leukemia
BT-549 breast = system: BT-549 breast
CCRF-CEM leukemia = system: CCRF-CEM leukemia
786-0 renal = system: 786-0 renal
SW-620 colon = system: SW-620 colon
HT29 colon = system: HT29 colon
SK-MEL-28 melanoma = system: SK-MEL-28 melanoma
HOP-92 NSCLC = system: HOP-92 NSCLC
SN12C renal = system: SN12C renal
NCI-H226 lung = system: NCI-H226 lung
UACC-257 melanoma = system: UACC-257 melanoma
KM12 colon = system: KM12 colon
K-562 leukemia = system: K-562 leukemia
PC-3 prostate = system: PC-3 prostate
HOP-62 NSCLC = system: HOP-62 NSCLC
HCT-116 colon = system: HCT-116 colon
NCI-H522 lung = system: NCI-H522 lung
LOX IMVI melanoma = system: LOX IMVI melanoma
OVCAR-5 ovarian = system: OVCAR-5 ovarian
M14 melanoma = system: M14 melanoma
MOLT-4 leukemia = system: MOLT-4 leukemia
SK-MEL-5 melanoma = system: SK-MEL-5 melanoma
SK-MEL-2 melanoma = system: SK-MEL-2 melanoma
A549 NSCLC = system: A549 NSCLC
OVCAR-8 ovarian = system: OVCAR-8 ovarian
HCT-15 colon = system: HCT-15 colon
UACC-62 melanoma = system: UACC-62 melanoma
SF-295 CNS = system: SF-295 CNS
UO-31 renal = system: UO-31 renal
NCI-H23 lung = system: NCI-H23 lung
OVCAR-3 ovarian = system: OVCAR-3 ovarian
MCF7 breast = system: MCF7 breast
T-47D breast = system: T-47D breast
U251 CNS = system: U251 CNS
A498 renal = system: A498 renal

`Cc1noc(NS(=O)(=O)c2ccc(NC(=O)c3ccc4[nH]c5ccccc5c(=O)c4c3)cc2)c1C` was tested, and the TGI (SR leukemia) was 85.2 µM, the TGI (SNB-75 CNS) was over 100 µM and the TGI (IGROV1 ovarian) was over 100 µM. It also gave a TGI (ACHN renal) of over 100 µM, a TGI (SF-539 CNS) of 62.2 µM and a TGI (MDA-N) of over 100 µM. For the same compound, the TGI (NCI/ADR-RES ovarian) was over 100 µM, the TGI (COLO 205 colon) was over 100 µM and the TGI (HCC-2998 colon) was 65.2 µM. For the same compound, the TGI (SF-268 CNS) was over 100 µM, the TGI (NCI-H460 lung) was over 100 µM and the TGI (EKVX NSCLC) was over 100 µM. It also gave a TGI (DU-145 prostate) of over 100 µM, a TGI (TK-10 renal) of over 100 µM and a TGI (SK-OV-3 ovarian) of over 100 µM. The TGI (SNB-19 CNS) was over 100 µM, the TGI (OVCAR-4 ovarian) was over 100 µM and the TGI (CAKI-1 renal) was over 100 µM. For the same compound, the TGI (RXF 393 renal) was 98 µM, the TGI (MDA-MB-231 breast) was over 100 µM and the TGI (MALME-3M melanoma) was over 100 µM. For the same compound, the TGI (RPMI-8226 leukemia) was over 100 µM, the TGI (HS 578T breast) was over 100 µM and the TGI (MDA-MB-435) was over 100 µM. It also gave a TGI (HL-60(TB) leukemia) of 66.8 µM, a TGI (BT-549 breast) of over 100 µM and a TGI (CCRF-CEM leukemia) of 67.3 µM. The TGI (786-0 renal) was over 100 µM, the TGI (SW-620 colon) was over 100 µM and the TGI (HT29 colon) was over 100 µM. For the same compound, the TGI (SK-MEL-28 melanoma) was over 100 µM, the TGI (HOP-92 NSCLC) was over 100 µM and the TGI (SN12C renal) was over 100 µM. The TGI (NCI-H226 lung) was over 100 µM, the TGI (UACC-257 melanoma) was over 100 µM and the TGI (KM12 colon) was over 100 µM. For the same compound, the TGI (K-562 leukemia) was 81.5 µM, the TGI (PC-3 prostate) was over 100 µM and the TGI (HOP-62 NSCLC) was over 100 µM. For the same compound, the TGI (HCT-116 colon) was over 100 µM, the TGI (NCI-H522 lung) was 76.2 µM and the TGI (LOX IMVI melanoma) was 56.5 µM. It also gave a TGI (OVCAR-5 ovarian) of over 100 µM, a TGI (M14 melanoma) of over 100 µM and a TGI (MOLT-4 leukemia) of 67.6 µM. For the same compound, the TGI (SK-MEL-5 melanoma) was over 100 µM, the TGI (SK-MEL-2 melanoma) was over 100 µM and the TGI (A549 NSCLC) was over 100 µM. It also gave a TGI (OVCAR-8 ovarian) of over 100 µM, a TGI (HCT-15 colon) of over 100 µM and a TGI (UACC-62 melanoma) of over 100 µM. The TGI (SF-295 CNS) was over 100 µM, the TGI (UO-31 renal) was over 100 µM and the TGI (NCI-H23 lung) was over 100 µM. It also gave a TGI (OVCAR-3 ovarian) of 77.8 µM, a TGI (MCF7 breast) of 66.5 µM and a TGI (T-47D breast) of 63.2 µM. It also gave a TGI (U251 CNS) of over 100 µM.

`N#C/C(=C\c1ccc(Cl)cc1)c1nc(-c2cc3ccccc3oc2=O)cs1` showed a TGI (SR leukemia) of over 100 µM, a TGI (SNB-75 CNS) of over 100 µM and a TGI (IGROV1 ovarian) of over 100 µM. It also gave a TGI (ACHN renal) of over 100 µM, a TGI (SF-539 CNS) of over 100 µM and a TGI (MDA-N) of over 100 µM. For the same compound, the TGI (NCI/ADR-RES ovarian) was over 100 µM, the TGI (COLO 205 colon) was over 100 µM and the TGI (HCC-2998 colon) was over 100 µM. It also gave a TGI (SF-268 CNS) of over 100 µM, a TGI (NCI-H460 lung) of over 100 µM and a TGI (EKVX NSCLC) of over 100 µM. For the same compound, the TGI (DU-145 prostate) was over 100 µM, the TGI (TK-10 renal) was 94.6 µM and the TGI (SK-OV-3 ovarian) was over 100 µM. For the same compound, the TGI (SNB-19 CNS) was over 100 µM, the TGI (OVCAR-4 ovarian) was over 100 µM and the TGI (CAKI-1 renal) was over 100 µM. The TGI (RXF 393 renal) was over 100 µM, the TGI (MDA-MB-231 breast) was 47.8 µM and the TGI (MALME-3M melanoma) was over 100 µM. For the same compound, the TGI (RPMI-8226 leukemia) was over 100 µM, the TGI (HS 578T breast) was 37.7 µM and the TGI (MDA-MB-435) was over 100 µM. It also gave a TGI (HL-60(TB) leukemia) of over 100 µM, a TGI (BT-549 breast) of 31.8 µM and a TGI (CCRF-CEM leukemia) of over 100 µM. It also gave a TGI (786-0 renal) of over 100 µM, a TGI (SW-620 colon) of over 100 µM and a TGI (HT29 colon) of over 100 µM. The TGI (SK-MEL-28 melanoma) was over 100 µM, the TGI (HOP-92 NSCLC) was 51.3 µM and the TGI (SN12C renal) was over 100 µM. For the same compound, the TGI (NCI-H226 lung) was over 100 µM, the TGI (UACC-257 melanoma) was over 100 µM and the TGI (KM12 colon) was over 100 µM. It also gave a TGI (K-562 leukemia) of over 100 µM, a TGI (PC-3 prostate) of over 100 µM and a TGI (HOP-62 NSCLC) of 58.2 µM. For the same compound, the TGI (HCT-116 colon) was over 100 µM, the TGI (NCI-H522 lung) was 50.1 µM and the TGI (LOX IMVI melanoma) was over 100 µM. For the same compound, the TGI (OVCAR-5 ovarian) was over 100 µM, the TGI (M14 melanoma) was over 100 µM and the TGI (MOLT-4 leukemia) was over 100 µM. It also gave a TGI (SK-MEL-5 melanoma) of over 100 µM, a TGI (SK-MEL-2 melanoma) of over 100 µM and a TGI (A549 NSCLC) of over 100 µM. It also gave a TGI (OVCAR-8 ovarian) of over 100 µM, a TGI (HCT-15 colon) of over 100 µM and a TGI (UACC-62 melanoma) of 85.3 µM. The TGI (SF-295 CNS) was over 100 µM, the TGI (UO-31 renal) was over 100 µM and the TGI (MCF7 breast) was over 100 µM. The TGI (T-47D breast) was over 100 µM and the TGI (U251 CNS) was 93.3 µM.

Work on `CC(C)(C)OC(=O)CCC1NC(=O)[C@@H]2Cc3c([nH]c4ccccc34)C(C3CCCCC3)N2C1=O` (stereo partly drawn) yielded a TGI (SR leukemia) of 61.1 µM, a TGI (IGROV1 ovarian) of over 100 µM and a TGI (ACHN renal) of over 100 µM. It also gave a TGI (MDA-N) of over 100 µM, a TGI (NCI/ADR-RES ovarian) of over 100 µM and a TGI (COLO 205 colon) of 38.9 µM. It also gave a TGI (SF-268 CNS) of over 100 µM, a TGI (EKVX NSCLC) of over 100 µM and a TGI (DU-145 prostate) of over 100 µM. For the same compound, the TGI (TK-10 renal) was over 100 µM, the TGI (SK-OV-3 ovarian) was over 100 µM and the TGI (SNB-19 CNS) was over 100 µM. The TGI (OVCAR-4 ovarian) was over 100 µM, the TGI (CAKI-1 renal) was over 100 µM and the TGI (RXF 393 renal) was over 100 µM. The TGI (MDA-MB-231 breast) was 76.6 µM, the TGI (MALME-3M melanoma) was 80.3 µM and the TGI (RPMI-8226 leukemia) was 56.5 µM. The TGI (HS 578T breast) was over 100 µM, the TGI (MDA-MB-435) was over 100 µM and the TGI (HL-60(TB) leukemia) was 41.9 µM. It also gave a TGI (BT-549 breast) of over 100 µM, a TGI (786-0 renal) of over 100 µM and a TGI (SW-620 colon) of over 100 µM. It also gave a TGI (HT29 colon) of 40.2 µM, a TGI (SK-MEL-28 melanoma) of over 100 µM and a TGI (HOP-92 NSCLC) of 78.3 µM. The TGI (SN12C renal) was 65.6 µM, the TGI (NCI-H226 lung) was over 100 µM and the TGI (UACC-257 melanoma) was over 100 µM. For the same compound, the TGI (KM12 colon) was 78 µM, the TGI (K-562 leukemia) was over 100 µM and the TGI (PC-3 prostate) was 74.2 µM. For the same compound, the TGI (HOP-62 NSCLC) was over 100 µM, the TGI (HCT-116 colon) was over 100 µM and the TGI (NCI-H522 lung) was over 100 µM. For the same compound, the TGI (LOX IMVI melanoma) was over 100 µM, the TGI (OVCAR-5 ovarian) was over 100 µM and the TGI (M14 melanoma) was over 100 µM. For the same compound, the TGI (MOLT-4 leukemia) was 61.3 µM, the TGI (SK-MEL-5 melanoma) was over 100 µM and the TGI (SK-MEL-2 melanoma) was 65.5 µM. It also gave a TGI (A549 NSCLC) of over 100 µM, a TGI (OVCAR-8 ovarian) of over 100 µM and a TGI (A498 renal) of over 100 µM. The TGI (HCT-15 colon) was over 100 µM, the TGI (UACC-62 melanoma) was over 100 µM and the TGI (SF-295 CNS) was 66.2 µM. For the same compound, the TGI (UO-31 renal) was over 100 µM, the TGI (NCI-H23 lung) was over 100 µM and the TGI (OVCAR-3 ovarian) was 99.7 µM. It also gave a TGI (MCF7 breast) of over 100 µM, a TGI (T-47D breast) of over 100 µM and a TGI (U251 CNS) of over 100 µM.
